These results are taken from patent US12016834B2, “Small molecule inhibitors of SLC25A1” (GEORGETOWN UNIVERSITY, priority 2017, dated 2024).

The target of one assay is SLC25A1 (Homo sapiens, UniProt P53007). As to the kind of experiment: Surface plasmon resonance (SPR) binding to recombinant purified SLC25A1. To be noted: steady state, 1:1 binding model; human protein. As to the method:
Surface Plasmon Resonance (SPR). SPR experiments were performed on a Biacore 4000 instrument at room temperature. The NTA sensorchip surface was activated by injecting 0.5 mM NiCl2 for 1 minute. Histidine-tagged recombinant purified SLC25A1 protein (0.07 mg/ml stock concentration) was used as the ligand to capture on the sensor surface. SLC25A1 was dissolved (1:50 dilution) in PBS-P (20 mM phosphate buffer (pH 7.4), 2.7 mM KCl, 137 mM NaCl and 0.05% surfactant P20) buffer and captured onto spots 2 and 4. SLC25A1 was captured to a level of ˜3000. PBS-P was used as the capture running buffer. Small molecules were used as analytes to flow over the ligand immobilized surface. Spot 3 of all flow cells were used as reference. The calculated theoretical Rmax was ˜30 RU based on a 1:1 interaction. The kinetics experiments were performed in the presence of HBS-P (10 mM HEPES (pH7.4), 150 mM NaCl, and 0.05% surfactant P20). The flow rate of all the solutions was maintained at 30 μL/min. The analyte concentrations were 0 μM, […], 6.25 μM, 12.5 μM, 25 μM, 50 μM, and 100 μM. Analyte concentrations showing signs of aggregation were excluded from the analysis. Data were analyzed by Biacore BiaEvaluation software for 1:1 steady state binding model.
On the technique in general: In SPR one partner is held on a chip, and binding of the other changes the refractive index at the surface.

The subject of another assay is H1299 cells. As to the kind of experiment: Seahorse oxygen consumption rate (mitochondrial stress test). In kind it is cell-based, human. The protocol: Seahorse extracellular flux analyzer experiments. Cells derived from spheres or monolayer cultures were dissociated and plated overnight at 12,000 cells/well in DMEM with 10% FBS, 5 mM glucose, 1 mM pyruvate, 2 mM glutamine.
For the mitochondrial stress test, the media was replaced with DMEM without FBS or bicarbonate, containing 5 mM glucose, 1 mM pyruvate, 2 mM glutamine and placed in a CO2 free incubator at 37° C. for 1 hour, and then transferred to the Xf96 extracellular flux analyzer (Agilent; Santa Clara, CA). The program consisted of 3 measurements of OCR/ECAR before the injection of each drug: oligomycin (0.5 μM final concentration), FCCP (2 μM) and rotenone/antimycin (0.5 μM of each). […] There were 3 measurements of OCR/ECAR before each injection: glucose (10 mM final concentration), oligomycin (0.5 […] (50 mM). For the analysis of glutamine oxidation, the protocol was the same as the glucose stress test, but with glutamine being the only compound injected (final concentration 4 mM) and OCR/ECAR measured for 60 minutes. When spheres were analyzed, they were dissociated with StemPro® Accutase® (Thermo Scientific; Waltham, MA) and plated under the same conditions as above as for the monolayers the day before the assay (H1299 spheres), or in stem cell media (See Stem Cell Media) with the wells coated in 15 μL of 2% geltrex diluted in DMEM:F12 (Thermo Scientific). […]

The subject of a further assay is MP1 tumor spheres. Description: Spheroid-based matrix invasion assay (invadopodia). It counts as cell-based, human. To be noted: spheres embedded in geltrex. As to the method:
Invadopodia measurements. After embedding the spheres in a 3D matrix, their extent of invasion was monitored over […]. Using an inverted microscope set at a magnification of 20×, images of the spheres were obtained at 0 hours, 24 hours, and 48 hours after plating. Analysis for invasion was done using ‘imageJ’ by NIH. The area of invasion was measured by sketching an outline around the spheres using the freehand draw tool. The ‘measure’ tool in ‘Analyze’ on the top menu calculated the area for the selected spheroid. The areas of just the spheres (inner area) and the area of the spheres along with its invadopodia (outer area) were measured. The percent difference between the outer area and the inner area was graphed to understand the extent of invasion in each cell type at different time points. The obtained areas for all the spheres were graphed. Spheres of similar areas were selected, whereas the outliers were eliminated so as to compare the spheres of similar volumes.

For another assay, the system named is MP1 cells. Description: Self-renewal and sphere forming in methylcellulose. It counts as cell-based, human. To be noted: semi-solid media. The protocol:
(§1) Self-renewal assays. Tumor cells cultured as spheroids were dissociated and diluted in 2× sphere media containing 1% methyl cellulose, which was previously dissolved in cold DMEM/F12 media. Either 200, 500, or 1000 cells were then plated in each 96 well and were incubated in the presence or absence of drugs, as indicated. The spheres were allowed to form for a period of a week to ten days, at which point they were counted. Six biological replicates were used for quantification of the results.
(§2) Primary lung cancer cultures and GMSC. Surgical samples were minced and digested with dispase (50 U/ml) in DMEM media containing 5% serum for 1 hour. Pleural effusions were centrifuged, washed once in PBS, and then plated. All primary cultures were initially grown on 6-well plates pre-coated with 2% Geltrex (Life Technologies; Carlsbad, CA) and 1% Maxgel (Sigma Aldrich). Maxgel is a humanized matrix, native and non-denatured. The inclusion of Maxgel in the system enhanced the initial attachment of primary tumor cells, partially because Maxgel provides a more natural ECM conformational substrate. The day after plating, the media containing unattached cells was typically transferred to a fresh plate, in most of cases generating new attached cultures. […]

The next assay concerns MP2 cells. Description: Self-renewal and sphere forming in methylcellulose. In kind it is cell-based, human. Particulars: semi-solid media. As to the method:
as §1, §2

Molecules are shown by their SMILES.

In general, Kd refers to a measure of binding affinity in units of concentration.

Chain of SLC25A1 (P53007 14-311): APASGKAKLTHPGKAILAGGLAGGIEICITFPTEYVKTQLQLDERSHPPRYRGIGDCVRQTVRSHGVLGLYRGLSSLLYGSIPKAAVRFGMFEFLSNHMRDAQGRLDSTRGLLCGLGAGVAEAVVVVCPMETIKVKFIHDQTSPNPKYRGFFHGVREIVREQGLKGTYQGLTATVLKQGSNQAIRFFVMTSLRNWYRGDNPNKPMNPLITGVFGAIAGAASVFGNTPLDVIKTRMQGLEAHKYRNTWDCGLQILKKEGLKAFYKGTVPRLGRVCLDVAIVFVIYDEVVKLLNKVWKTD

Turning to `O=C(O)c1ccccc1NS(=O)(=O)c1ccc(Cl)c([N+](=O)[O-])c1` [CTPI-2], at SLC25A1, the Kd is 5.3 µM. For the same compound, in the assay with H1299 cells (SLC25A1 shRNA cells), the “respiratory activity of cells expressing the SLC25A1 shRNA” value is “failed to affect the respiratory activity”. Also, in the assay with H1299 cells (treated for three hours, spheres and monolayers), the “respiratory capacity (OCR)” value is “inhibited respiratory capacity in a dose-dependent fashion”. Besides, in the assay on MP1 tumor spheres, the matrix invasion result is “completely reverted this phenotype”. Also, the “self-renewal and sphere forming ability” value was “blunted self-renewal and sphere forming ability” in the assay with MP1 cells; “blunted self-renewal and sphere forming ability” in the assay with MP2 cells.
